Results: ChEMBL document CHEMBL2029240 (ACS Med Chem Lett, 2011)

What was measured:
hERG (KCNH2) = hERG (KCNH2) (Homo sapiens, UniProt Q12809); experiment: Inhibition of human ERG at 10 uM by patch clamp assay
[1] = target: Voltage-gated inwardly rectifying potassium channel KCNH2 (Homo sapiens, UniProt Q12809); experiment: Displacement of [3H]dofetilide from human ERG
[2] = target: T1, C-C chemokine receptor type 2 (Homo sapiens, UniProt P41597); experiment: Antagonist activity at CCR2 receptor in human whole blood assessed as inhibition of alexa-tagged MCP-induced effect 30 mins by flow cytometry; assay type: functional, tissue-based
[3] = target: T1, C-C chemokine receptor type 2
Description: Displacement of [125I]MCP1 from human CCR2 in PBMC after 30 mins by gamma counting

T1 sequence (P41597 whole entry): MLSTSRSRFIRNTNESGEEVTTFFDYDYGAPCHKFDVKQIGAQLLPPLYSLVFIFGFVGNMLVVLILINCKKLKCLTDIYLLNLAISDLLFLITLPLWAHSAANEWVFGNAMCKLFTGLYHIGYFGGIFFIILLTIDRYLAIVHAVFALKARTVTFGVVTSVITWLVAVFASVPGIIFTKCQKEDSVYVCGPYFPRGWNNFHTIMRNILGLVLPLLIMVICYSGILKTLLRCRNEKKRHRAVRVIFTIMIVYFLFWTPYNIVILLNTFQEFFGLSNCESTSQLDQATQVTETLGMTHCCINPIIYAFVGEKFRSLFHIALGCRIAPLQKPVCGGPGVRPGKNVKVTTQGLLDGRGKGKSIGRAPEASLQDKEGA
Voltage-gated inwardly rectifying potassium channel KCNH2, sequence (Q12809 whole entry): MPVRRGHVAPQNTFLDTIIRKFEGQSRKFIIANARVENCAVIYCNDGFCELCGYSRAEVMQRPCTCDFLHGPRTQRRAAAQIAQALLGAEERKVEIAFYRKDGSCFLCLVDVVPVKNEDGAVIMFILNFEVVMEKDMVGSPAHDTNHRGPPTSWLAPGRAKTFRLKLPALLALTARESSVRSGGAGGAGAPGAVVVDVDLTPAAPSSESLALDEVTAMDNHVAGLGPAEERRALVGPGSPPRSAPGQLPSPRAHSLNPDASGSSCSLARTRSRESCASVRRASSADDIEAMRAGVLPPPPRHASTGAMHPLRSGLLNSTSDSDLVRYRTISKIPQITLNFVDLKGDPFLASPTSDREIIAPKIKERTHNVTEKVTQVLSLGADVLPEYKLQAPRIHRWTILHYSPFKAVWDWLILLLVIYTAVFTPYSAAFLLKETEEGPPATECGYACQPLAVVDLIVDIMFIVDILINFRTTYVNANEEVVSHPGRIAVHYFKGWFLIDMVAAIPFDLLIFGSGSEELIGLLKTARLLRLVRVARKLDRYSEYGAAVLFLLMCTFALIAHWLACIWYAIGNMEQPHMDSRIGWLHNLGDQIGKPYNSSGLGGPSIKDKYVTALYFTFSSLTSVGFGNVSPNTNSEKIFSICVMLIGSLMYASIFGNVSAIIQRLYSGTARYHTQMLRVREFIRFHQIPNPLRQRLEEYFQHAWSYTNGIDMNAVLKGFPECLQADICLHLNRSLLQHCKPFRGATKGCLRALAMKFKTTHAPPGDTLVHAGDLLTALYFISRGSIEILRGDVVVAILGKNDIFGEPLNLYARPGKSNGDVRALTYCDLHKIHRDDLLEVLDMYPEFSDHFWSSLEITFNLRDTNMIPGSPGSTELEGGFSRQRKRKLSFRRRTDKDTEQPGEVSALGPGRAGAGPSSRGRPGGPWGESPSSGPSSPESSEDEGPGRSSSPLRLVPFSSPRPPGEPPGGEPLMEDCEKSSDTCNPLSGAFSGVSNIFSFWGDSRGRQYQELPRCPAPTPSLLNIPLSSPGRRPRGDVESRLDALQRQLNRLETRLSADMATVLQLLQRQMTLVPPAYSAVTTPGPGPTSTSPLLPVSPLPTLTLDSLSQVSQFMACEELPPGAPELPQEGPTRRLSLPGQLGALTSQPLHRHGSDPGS
hERG (KCNH2), sequence (Q12809 whole entry): as above

| IC50 [2] | IC50 [3] | Compound | inhibition at 10 µM (hERG (KCNH2)) | IC50 [1] |
| --- | --- | --- | --- | --- |
| 0.037 µM | 0.0036 µM | O=C(C1CCN(c2cccc(C(F)(F)F)c2)CC1)N1CC[C@H](N[C@H]2CC[C@@](O)(c3ccc(-c4ncccn4)cn3)CC2)C1 | – | 9 µM |
| 0.088 µM | 0.0045 µM | O=C(C1CCN(c2cccc(C(F)(F)F)n2)CC1)N1CC[C@H](N[C@H]2CC[C@@](O)(c3ccc(-c4ncccn4)cn3)CC2)C1 | – | – |
| 0.012 µM | 0.0033 µM | O=C(C1CCN(c2cc(C(F)(F)F)ccn2)CC1)N1CC[C@H](N[C@H]2CC[C@@](O)(c3ccc(-c4ncccn4)cn3)CC2)C1 | – | 28 µM |

More lines, now with the values behind:

| Compound | IC50 [2] | IC50 [3] | inhibition at 10 µM (hERG (KCNH2)) | IC50 [1] |
| --- | --- | --- | --- | --- |
| O=C(NCC(=O)N1CC[C@H](N[C@H]2CC[C@@](O)(c3ccc(-c4cnccn4)cn3)CC2)C1)c1cccc(C(F)(F)F)c1 | – | – | 70% | > 30 µM |
| O=C(NCC(=O)N1CC[C@H](N[C@H]2CC[C@@](O)(c3ccc(-c4nccs4)cn3)CC2)C1)c1cccc(C(F)(F)F)c1 | – | – | 85% | > 30 µM |
